Measurements: patent US20230152325A1, “Active Alpha-5-Beta-1 Integrin As A Biomarker For Enhancing Tumor Treatment Efficacy” (Institute For Cancer Research d/b/a The Research Institute …, priority 2016, published 2023)

Tests used:
[1] = test system: naïve pancreatic fibroblasts cultured within D-ECM; assay: ECM prompted myofibroblastic maintenance (α-SMA / F-actin immunofluorescence), PDAC model; format: cell-based, human; conditions: PDAC; naïve fibroblasts plated in D-ECM in presence of the agent
Protocol: (§1) ECM prompted myofibroblastic maintenance. Human naïve or assorted murine fibroblasts were incubated for 45 minutes prior to overnight culturing within assorted ECMs, prepared as above, in the presence or absence of 50 μg/ml SNAKA51, 60 μg/m ALULA, 250 μg/m mAb16, or BMAS diluted as instructed by the manufacturer (Millipore, Temecula, Calif.), IgG control, DMSO or small molecule inhibitors FAK (PF573,228) and SRC family kinases (PP2). ECM-induced phenotypes were assessed via RT-qPCR, Western Blot or immunofluorescence.
(§2) Naïve/innate PDAC and RCC patient harvested fibroblasts were cultured overnight within normal (N-ECM) vs. desmoplastic (D-ECM or DECMs that were produced in the presence or absence of TGFβ1-receptor inhibition (D+TGFβi) or vehicle control (D+DMSO). Alternatively, naïve cells cultured within D-ECMs were treated with either TGFβ1-receptor inhibitor (TGFβ-i), vehicle (DMSO), functional blocking antibodies anti-αvβ5 integrin (alula, αvβ5-i), anti-α5β1 integrin (mAb16, α5β1-i), combinations of both functional blocking antibodies (β5-i+α5-i), functional stabilizing anti α5β1 integrin (SNAKA51; α5β1-act) or non-immunized isotypic antibodies (IgG). All samples were subjected to indirect immunofluorescent labeling of desmoplastic marker α-SMA and counterstained with fluorescently labeled phalloidin to detect actin stress fibers (F-actin) and determine the co-localization ratio. Monochromatic “heat map” images (see, FIG. 2A) represent α-SMA intensity values. A 255 tones intensity scale bar is shown to the right. A summary of all measured values is graphed in FIG. 2B. Additional monochromatic images indicative of double labeled staining for α-SMA and F-actin are in FIG. 2C while levels of total α-SMA localized at corresponding stress fibers are plotted in FIG. 2D. Untreated D-ECM conditions were included in all experiments summarized in this figure and serve as normalization (1 arbitrary unit; a.u.) controls. Matching values including statistical significances are listed in accompanying Table 1. All scale bars represent 50 μm. TGFβ activity was needed to maintain functional D-ECM production but was dispensable when testing D-ECM induced responses, while the later were obstructed by αvβ5 integrin inhibition or active α5β1 integrin stabilization.

[2] = test system: naïve renal fibroblasts cultured within D-ECM; assay: ECM prompted myofibroblastic maintenance (α-SMA / F-actin immunofluorescence), RCC model; format: cell-based, human; conditions: RCC; naïve fibroblasts plated in D-ECM in presence of the agent
Protocol: as §1, §2

[3] = test system: murine fibroblasts cultured in mD-ECM; assay: mD-ECM induced myofibroblastic activation of murine fibroblasts (stress fiber α-SMA); format: cell-based; conditions: wild type murine fibroblasts in mD-ECM (80% untreated)
Protocol: as §1
FIGS. 3A through 3H show FAK independent α5β1 integrin activity negatively regulates D-ECM-induced desmoplastic activation. […]

**Q.** Which results are given for `CS(=O)(=O)c1cccc(CNc2nc(Nc3ccc4c(c3)CCC(=O)N4)ncc2C(F)(F)F)c1` [PF573,228]?
**A.** α-SMA expression levels relative to untreated conditions [1]: 17%; α-SMA stress fiber localization levels [1]: 23.5%; α-SMA expression levels relative to untreated conditions [2]: 70%; α-SMA stress fiber localization levels [2]: 25%; cells undergoing myofibroblastic activation [3]: 32%
